From US20070155771A1, “Methods and means for treating protein conformational disorders” (priority 2003, published 2007)

Legend:
[1] = test system: LC3-stained vesicles (autophagosomes); experiment: Number of LC3-stained vesicles (autophagic activity); assay type: cell-based; conditions: rapamycin treatment
Text: Immunocytochemistry was done in COS-7 cells fixed with 4% paraformaldehyde (Sigma). Free-floating mouse brain sections from HD transgenic and control brains and paraffin-embedded HD grade III and control brain slices spanning the caudate and putamen regions were used for histochemical analysis. Primary antibodies used: anti-mTOR, anti-phospho-mTOR (Ser2448), anti-4E-BP1, anti-phospho-S6 (Ser235/236) (Cell signalling technologies), anti-LC3 (kind gift from Dr Yoshimori) and anti-huntingtin and anti-ubiquitin (both from Chemicon). Immunohistochemistry was performed by standard fluorescence methods or peroxidase labelling using Vectastain Avidin: Biotinylated enzyme Complex (ABC) kit. Relevant negative controls without the primary antibodies were performed alongside all the experiments.
LC3-II is a form of microtubule associated protein-1 light chain-3 (MAP-LC3), which is associated with mammalian autophagosomes (Kabeya, Y. et al. Embo J 19, 5720-5728 (2000)). […] While this effect was subtle, it was consistent and reproducible in four independent experiments. In addition, LC3-II increased upon induction of mutant huntingtin fragment expression in the stable PC12 cells, while no difference was seen upon induction of the Q23 cells. Another way one can score autophagic activity is to assess the number of LC3-stained vesicles.

[2] = test system: Drosophila HD model expressing the first 171 residues of huntingtin with 120 glutamines (120Q) in photoreceptors; experiment: Drosophila HD model, pseudopupil analysis of photoreceptor neurodegeneration; assay type: in vivo
Protocol: A Drosophila line y; w; gmr-Q120 was crossed to w; iso2; iso3 to obtain progeny heterozygous for the transgene gmr-Q120. Flies were allowed to mate on normal food for 2-3 days and then transferred to food containing 1 μM rapamycin (Sigma) or DMSO. After eclosion, flies were placed on food containing 1 μM rapamycin or DMSO. Flies were transferred to newly prepared food every day.
Pseudopupil analysis: Adult male flies were decapitated and the head was mounted onto a microscope slide using nail polish. Analysis was performed with an optical microscope using a 60× objective with the observer blinded to the identity of the slides. Approximately 75 ommatidia were evaluated for each group (approx. 15 ommatidia in 5 individuals). Each experiment was done twice. The frequency of ommatidia with different numbers of visible rhabdomeres was based on all visible photoreceptor neurons, irrespective of their shape or brightness. Flies were raised at 25° C. with 12/12-h light/dark-cycle, 70% humidity.
A Drosophila HD model that expresses the first 171 residues of huntingtin with 120 glutamines (120Q) in photoreceptors (Jackson, G. R., et al. Neuron 21, 633-642 (1998)) was used to test whether long-term mTOR inhibition with rapamycin would have beneficial effects in vivo. The mutant flies show photoreceptor neurodegeneration, a phenotype that is easily quantifiable using the pseudopupil technique (Franceschini, N. & Kirschfeld K. Kybernetik 9, 159-182 (1971)). No degeneration is seen in flies expressing analogous constructs with 20Q (wild-type transgenics). The compound eye of Drosophila comprises many ommatidia. An ommatidium normally contains eight photoreceptor neurons with light gathering parts called rhabdomeres, seven of which can be easily visualized using the pseudopupil technique. The number of visible rhabdomeres in each ommatidium decreases as a function of time when there is photoreceptor neurodegeneration, like in the 120Q fly lines.

[3] = test system: COS-7 cells expressing EGFP tagged wild-type HD exon 1 protein with 23 glutamine repeats, EGFP-polyalanine with 7 repeats or empty EGFP; experiment: Control constructs (Q23, A7, empty EGFP) in transiently transfected COS-7 cells; assay type: cell-based, African green monkey; conditions: 10 mM 3-MA
Protocol: African green monkey kidney cells (COS-7) were grown in Dulbecco's Modified Eagle Medium (DMEM, Sigma) supplemented with 10% Fetal Bovine Serum (FBS), 100 U/ml Penicillin/Streptomycin, 2 mM L-Glutamine and 1 mM Sodium Pyruvate at 37° C., 5% Carbon dioxide. The cells were grown on coverslips in six-well plates for immunofluorescence analysis, or were directly grown in six-well plates to 60-80% confluency for 24 hours for western blot analysis. Transfection was done using LipofectAMINE reagent (Invitrogen) using the manufacturer's protocol. The transfection mixture was replaced by normal culture medium after 5 hours incubation at 37° C. and the transfected cells were analysed by immunofluorescence or immunoblot 48 hours after transfection. […] Equal amounts of water or DMSO were added to the untreated controls, where relevant. The cells on coverslips were rinsed with 1×PBS, fixed with 4% paraformaldehyde in 1×PBS for 20 min and mounted in […] supplemented with 4',6-diamidino-2-phenylindole (DAPI, 3 μg/ml, Sigma) to allow visualisation of nuclear morphology. […] Aggregate formation and nuclear morphology were assessed using a fluorescence microscope. 200 EGFP positive COS-7 cells were selected and the proportion of cells with aggregates was counted. […]

Compound	number of LC3-stained vesicles [1]	120Q-induced photoreceptor degeneration ([2]; 1 μM rapamycin in food from larval stage into adulthood, vs DMSO)	number of visible rhabdomeres per ommatidium ([2]; 1 μM rapamycin in food, two and three days after eclosion, p<0.0001)	frequency of ommatidia with seven rhabdomeres ([2]; HD 120Q flies, 2 and 3 days post-eclosion)	aggregate formation in cells expressing Q23 or A7 [3]	levels of empty EGFP [3]
rapamycin	marked increase	dramatically rescued	significantly increased	dramatically increases		
Cn1cnc(N)c2ncnc1-2 [3-MA, 3-methyl adenine]					did not cause aggregate formation	did not cause any change
